Data reported in patent US9809808B2, “Antimicrobial agents” (KATHOLIEKE UNIVERSITEIT LEUVEN K.U. LEUVEN R&D, priority 2008, dated 2017).
Like-named read-outs stand apart in the source and are kept apart here.

B1: POLY-gp144: SEQ ID NO: 35: phiKZgp144 (SEQ ID NO: 1) with N-terminal peptide stretch KRKKRKKRK (SEQ ID NO: 11) (protein)
chain: MGSKRKKRKKRKKVLRKGDRGDEVCQLQTLLNLCGYDVGKPDGIFGNNTFNQVVKFQKDNCLDSDGIVGKNTWAELFSKYSPPIPYKTIPMPTANKSRAAATPVMNAVENATGVRSQLLLTFASIESAFDYEIKAKTSSATGWFQFLTGTWKTMIENYGMKYGVLTDPTGALRKDPRISALMGAELIKENMNILRPVLKREPTDTDLYLAHFFGPGAARRFLTTGQNELAATHFPKEAQANPSIFYNKDGSPKTIQEVYNLMDGKVAAHRK
modifications: POLY-gp144

System: Burkholderia solanacearum
Format: cell-based
Settings: 100 μg/ml undialyzed protein, 1 hour, room temperature

Row | Molecule | Reduction [%] (relative inactivation) | Reduction [%] (relative inactivation) (listed as POLYKZ144)
1 | phiKZgp144: SEQ ID NO: 1: unmodified modular endolysin originating from Pseudomonas aeruginosa phage φKZ [reference compound] | 0 | 
2 | B1 |  | 99-99.9%
